According to patent publication US20040157911A1, “Storage-stable and bio-stable formulations of ace inhibitors, and methods for preparation thereof” (priority 1999, published 2004):
Counter-ions that a name gives are not always drawn.

Assay: Dispersion time of enalapril maleate in alcohol/water liquids
Assay type: physicochemical
Conditions: for Dispersion Time: 50 g in 200 mL, 200 rpm
Method: Enalapril maleate (50 grams) was added to 200 mL of liquid. The liquid ranged from 100% alcohol/0% water to 0% alcohol/100% water (see Table 1). The solutions were stirred at 200 rpm at room temperature using a Lightning Mixer (General Signal Controls, Rochester, N.Y.) with the mixing blade 1 cm from the bottom of the beaker. Enalapril maleate was considered “dispersed” when all of the drug powder was wetted and had become immersed in the liquid.

Time to full dispersion in alcohol (20 mg/ud in SD3A denatured alcohol (50 mg/ud), stirring at 500 rpm (preparation of Formula I)): less than 10 seconds | Dispersion Time (25%/75% alcohol/water, full value 1 minute, 15 seconds (seconds in next row)): 60 s | Dispersion Time (50%/50% alcohol/water, room temperature): 45 s | Dispersion Time (75%/25% alcohol/water, room temperature): 30 s | Dispersion Time (85%/15% alcohol/water, room temperature): 28 s | Dispersion Time (100%/0% alcohol/water, room temperature): 27 s
Structure (SMILES): CCOC(=O)[C@H](CCc1ccccc1)N[C@@H](C)C(=O)N1CCC[C@H]1C(=O)O [enalapril maleate]
